Experimental findings from ChEMBL document CHEMBL6127108, “Triantaspirols A-C and Paraphaeolactone Cs from Paraphaeosphaeria sp. KT4192: Sensitivity of CP3 in Distinguishing Close NMR Signals” (J Nat Prod, 2024) are described below.

For the experiment, the system named is COLO 201. The experiment in a line: Cytotoxicity against human COLO201 cells assessed as inhibition of cell growth incubated for 24 hrs by WST-1 assay. As to conditions: for IC50: COLO 201, 24 h. The experiment is classed as functional, cell-based. A general note: Tetrazolium assays rely on reduction of a dye to a coloured formazan, in cell work by metabolically active cells.

Molecules are shown by their SMILES. The source made the active and inactive calls. The rule behind the calls is not given here.

On to `C[C@@H]1C=C[C@@]2(O)[C@@H]3OC(=O)[C@@](O)([C@H]13)[C@@H]2Oc1ccc(O)c2c1C(=O)CCC21Oc2cccc3cccc(c23)O1`, for which the result was inactive.

For orientation: IC50 means the concentration that inhibits the measured activity by half. Regarding `Cc1ccc(O)c2c1C(=O)[C@](C)(Oc1ccc(O)c3c1[C@@H](O)CCC31Oc3cccc4cccc(c34)O1)O2`, the 50% inhibitory concentration (IC50) came out at 23 µM.

As for `Oc1ccc(O)c2c1[C@@H](O)CCC21Oc2cccc3cccc(c23)O1`, the result was inactive.

As for `CC[C@@]1(O)C(=O)OCc2c1cc1n(c2=O)Cc2cc3ccccc3nc2-1` [CAMPTOTHECIN], the IC50 came out at 34 µM.

In the case of `Cc1ccc(O)c2c1C(=O)[C@@](C)(Oc1ccc(O)c3c1[C@@H](O)CCC31Oc3cccc4cccc(c34)O1)O2`, the IC50 was 17 µM.
